Reference: ChEMBL document CHEMBL1131964, “Preparation and receptor binding affinities of cyclic C-terminal neurotensin (8-13) and (9-13) analogues” (Bioorg Med Chem Lett, 1999)

The compounds below were run against Neurotensin receptor (Homo sapiens, UniProt O95665+P30989) (assay: Binding ability to compete with [125I]Tyr3-NT (0.15 nM) for human NT receptors cloned in CHO cells.).
Type: cell-based
CC[C@@H](C)[C@@H](NC(=O)[C@@H]1Cc2ccc(cc2)OCCCCCC(=O)N2CCC[C@H]2C(=O)N1)C(=O)N[C@@H](CC(C)C)C(=O)O was tested, and the Ki was > 2000 nM.
CC[C@@H](C)[C@@H](NC(=O)[C@@H]1Cc2ccc(cc2)OCCCCCC(=O)N[C@H](CCCN=C(N)N)C(=O)N2CCC[C@H]2C(=O)N1)C(=O)N[C@@H](CC(C)C)C(=O)O gave a Ki of 450 nM.
For CC[C@H](C)[C@H](NC(=O)[C@H](Cc1ccc(O)cc1)NC(=O)[C@@H]1CCCN1C(=O)[C@@H](N)CCCN=C(N)N)C(=O)N[C@@H](CC(C)C)C(=O)O, the Ki was 28 nM.
